In patent US6342517B1, “Potassium channel activators and their use” (Cambridge Bioclinical Limited, priority 1998, dated 2002):

Key:
NIH 3T3 fibroblasts = assay: Cell growth potentiation test (potentiation of mitogenic activity of fetal calf serum, EZ4U cellular proliferation assay); assay type: cell-based; details: for Cell growth potentiation relative to minoxidil at 100 μM (%): 0% = base concentration of FCS alone (5% or 3%), 100% = minoxidil at 100 μM; for Cell growth relative to FCS alone (%): 100% = same growth as base concentration of FCS alone
Text: To test for activity in mammalian hair growth stimulation, an in vitro test of cell growth potentiation has been applied to a number of the compounds of the invention and prior art compounds 11901 and 11903. The test involves an assay of the call growth due to potentiation of the mitogenic activity of fetal calf serum (FCS). See WO97/14036. Details of materials, methods and results are as follows.
Tissue culture plastics were obtained from Beckton Dickinson (Cowley, Oxford, UK). NIH 3T3 fibroblasts were obtained from the European collection of animal cell cultures (Salisbury, Wilts, UK). Dulbecco's modified Eagle's medium (DMEM) was obtained from Flow Laboratories (Rickmansworth, Herts, UK). L-Glutamine and fetal calf serum were from Gibco (Paisley, UK).
The EZ4U cell proliferation assay kits were obtained from Cozart Bioscience Ltd (Abingdon, Oxon, UK). All other chemicals were obtained from Sigma Chemical Company Ltd. (Poole, Dorset, UK), and of the highest grade available.
NIH 3T3 fibroblasts were maintained in Dulbecco's modified Eagle's medium supplemented with 10% FCS and 2 mM L-glutamine in 150 cm^2 tissue culture flasks at 37° C. in an atmosphere of 5% CO2/95% air. Antibiotics were omitted. Medium was changed every 3 days, and passages were carried out twice a week before cells reached confluence. Prior to experiments, cells were passaged and plated out to give 10^4 cell/ml in 96-well multi-well plates. Cells were incubated for 24 hours with Dulbecco's modified Eagle's medium supplemented with 10% FCS to aid attachment. This was then removed and the experimental medium added.
Compounds were prepared following a general preparation protocol. This protocol consisted of taking a mass of compound, dissolving in the recommended solvent (40 μl) such that in the final preparation the concentrations of compound and solvent would be 100 μM and 0.1 respectively. In theory this volume was 40 μl, however for accuracy a mass larger than the required mass was dispensed and the solvent volume varied accordingly; only 40 μl of this solution was required for the next stage. The 40 μl volume was then added to a volume of FCS (1.2 ml), such that in the final preparation the concentration of FCS would be 3%. This solution was then added to DMEM containing L-glutamine (2 mM) (18.76 ml). The resulting solution of 20 ml volume was filter stabilised. This solution is now 200 μM in compound, 6% FCS and 0.2% solvent, and so was diluted 1:1 with the DMEM containing L-glutamine. This 100 μM stock could then be diluted serially to provide lower concentrations of the compound of interest. Solutions containing different ratios of compound and FCS were obtained in a similar manner.
This was performed, following the manufacturer's instructions, using an EZ4U assay kit, which is based upon the conversion of tetrazolium salt to coloured formazam derivatives by mitochondria (Hansen et al, 1989). Plates were read on a plate reader (Anthos Labtec HT2), using a measurement filter (450 nm), with a reference filter (620 nm) with a low Shaking density for 5 seconds prior to measurement. Control experiments were made against counting cells in a haemocytometer (sanders et al, 1996). There is some variance of results between different batches of FCS employed.
A series of cell growth potentiation/inhibition tests has been carried out in accordance with the procedure described above on some of the compounds of the invention, on compounds 11901 and 11903 and on minoxidil (a compound well known for its hair growth stimulation effects). Because of some variability of results with different batches of FCS, each compound was tested in a solution of a base concentration of FCS and was compared with minoxidil in a solution of the same base concentration of FCS and with a solution having the same base concentration of FCS alone (no additive), using the same FCS batch in order to provide standardised comparisons for that compound. […]

[1] = tested on: K+-stimulated isolated rat aorta; assay: K+-stimulated isolated rat aorta test; details: relaxation of contraction triggered by 25 mM KCl in rat aorta rings; asterisk (*) = low activity, only approximate value
Description: K^+-stimulated Isolated Rat Aorta Test
Male rats weighing about 300 g are killed painlessly by a blow to the neck and quickly exsanguinated. The thoracic cavity is opened and the aorta is carefully resectioned. It is placed in a Petri dish filled with Krebs solution, and surrounding connective and fatty tissue is removed. Two rings are prepared. The rings are each suspended in an organ bath, They are attached at the bottom to a hook and at the top to an electrical force transducer which is able to measure precisely contractions of 0-10 grams in strength. The measured contractions are amplified by means of a bridge amplifier and recorded with a thermal plotter.
The organ baths are filled with Krebs solution at 37° C. through which an O2/CO2 mixture is bubbled thoroughly and which has the following composition (mmol/1): NaCl 118.4; KCl 4.7; CaCl2 2.5; KH2PO4 1.2; MgSO4 1.2; NaHCO3 25; glucose 11.
The rings are stretched with a basic tone of about 0.5 g, After an equilibration time of about 30 minutes, the rings are caused to undergo contraction by depolarization (addition of 25 mM KCl to the organ bath). The contractions of the rings of aorta, triggered by the depolarization, quickly reach a plateau, As soon as this plateau is reached (“100% value”), the test substance is added to the organ bath, initially at low concentrations, for example 10^−8M, and then in increasing doses at regular intervals, until the contractions reduce or the final concentration of 10^−4M is reached. Each test substance is tested 2-4 times in this way.
For purposes of evaluation, the height of the contractions registered on the plotter paper is measured for each experiment after the action of each test concentration added. The IC50 value can be calculated in this way in relation to the original height of contractions before the addition of substance (100%).

Row | Compound | melting point [°C] | IC50 [1] [µM] | Cell growth potentiation relative to minoxidil at 100 μM (%) (NIH 3T3 fibroblasts; Compound at 10 μM) | Cell growth potentiation relative to minoxidil at 100 μM (%) (NIH 3T3 fibroblasts; Compound at 100 μM) | Cell growth relative to FCS alone (%) (NIH 3T3 fibroblasts; Compound at 100 μM) | Cell growth relative to FCS alone (%) (NIH 3T3 fibroblasts; Compound at 10 μM)
1 | CC1=C(C)C[C@@]2(CC(C)(C)Oc3cc(C#N)sc32)[S@+]([O-])C1 (relative stereo) [Compound 50097, rel-(1′R, 2′S)-3′,6,6′,7-Tetrahydro-4′,5,5′,5-tetramethyl-1′-oxospiro[5H-thieno[3,2-b]pyran-7,2′-2H-thiopyran]-2-carbonitrile] | 179 to 183 | ~10 | 242 | 257 |  | 
2 | CC1=C(C)CC2(CC(C)(C)Oc3ccsc32)SC1 (stereo not drawn) [Compound 50049, 3′,6,6′,7-Tetrahydro-4′,5,5,5′-tetramethylspiro[5H-thieno[3,2-b]pyran-7,2′-2H-thiopyran]] | 90 to 92 | ~10 |  |  | 50 | 100
3 | CC1(C)CC2(SCCCS2)c2sc(C#N)cc2O1 [Compound 50057, 6′,7′-Dihydro-5′,5′-dimethylspiro[1,3-dithiane-2,7′-5H-thieno[3,2-b]pyran]-2′-carbonitrile] |  | ~10 |  | 33 |  | 98
4 | CC1=C(C)CC2(CC(C)(C)Oc3cc(C#N)sc32)SC1 (stereo not drawn) [Compound 50092, 3′,6,6′,7-Tetrahydro-4′,5,5,5′-tetramethylspiro[5H-thieno[3,2-b]pyran-7,2′-2H-thiopyran]-2-carbonitrile] | 148 to 149 | ~10 | 214 | 71 |  | 
5 | CC1=C(C)CC2(CC(C)(C)Oc3cc(S(=O)(=O)c4ccccc4)sc32)SC1 (stereo not drawn) [Compound 50121, 3′,6,6′,7-Tetrahydro-4′,5,5,5′-tetramethyl-2-(phenylsulphonyl)spiro[5H-thieno[3,2-b]pyran-7,2′-2H-thiopyran]] | 175 to 178 | > 100 | 285 | 271 |  | 

Compounds with a lower IC50 [1], results first:

Row | melting point [°C] | IC50 [1] [µM] | Compound | Cell growth potentiation relative to minoxidil at 100 μM (%) (NIH 3T3 fibroblasts; Compound at 10 μM) | Cell growth potentiation relative to minoxidil at 100 μM (%) (NIH 3T3 fibroblasts; Compound at 100 μM) | Cell growth relative to FCS alone (%) (NIH 3T3 fibroblasts; Compound at 100 μM) | Cell growth relative to FCS alone (%) (NIH 3T3 fibroblasts; Compound at 10 μM)
6 |  | 0.026 | CC1(C)Oc2cc(S(=O)(=O)c3ccccc3)sc2[C@@H](N2CCCC2=O)[C@@H]1O (relative stereo) [Compound 50123, rel-(6S,7S)-6,7-Dihydro-6-hydroxy-5,5-dimethyl-7-(2-oxo-1-pyrrolidinyl)-2-(phenylsulphonyl)-5H-thieno[3,2-b]pyran] | 120 |  | 94 | 
7 | 121 to 123 | 2.9 | CC1(C)CC2(SCCCS2)c2sccc2O1 [Compound 50048, 6′,7′-Dihydro-5′,5′-dimethylspiro[1,3-dithiane-2,7′-5H-thieno[3,2-b]pyran]] |  |  |  | 
8 |  | 0.24 | CC1(C)C=C(N2CCCC2=O)c2sc(S(=O)(=O)c3ccccc3)cc2O1 [Compound 50109, 5,5-Dimethyl-7-(2-oxo-1-pyrrolidinyl)-2-(phenylsulphonyl)-5H-thieno[3,2-b]pyran] | 233 | 122 |  | 
